Experimental data: patent US7723112B2, “Compositions and methods for treating and diagnosing cancer” (The Regents of the University of Michigan, priority 2005, dated 2010)
Read-outs that look alike come from different tables or passages of the source.

Test system: UM-C4 tumor cells
Conditions: monitored four months
Text: Mice were monitored for tumor growth over a period of four months and scored as either positive or negative for tumor growth such that Poisson statistics could be done to assess TG cell frequency among the input population.

O=P1(N(CCCl)CCCl)NCCCO1 (stereo not shown) [CPA, Cyclophosphamide]
mice developing tumors / mice injected (input of 56 bulk tumor cells from CPA-treated tumors): 4/8
mice developing tumors / mice injected (input of 167 bulk tumor cells from CPA-treated tumors): 5/8
mice developing tumors / mice injected (input of 500 bulk tumor cells from CPA-treated tumors): 9/9
mice developing tumors (input of 1,500 bulk tumor cells from CPA-treated tumors): All eight
